Assay [1] can be described thus: Inhibition of CK2.
The nature of assay [2]: Inhibition of CK1.
A further assay concerns the target T1, Aurora kinase A (Homo sapiens, UniProt O14965).
T1 sequence (O14965 whole entry): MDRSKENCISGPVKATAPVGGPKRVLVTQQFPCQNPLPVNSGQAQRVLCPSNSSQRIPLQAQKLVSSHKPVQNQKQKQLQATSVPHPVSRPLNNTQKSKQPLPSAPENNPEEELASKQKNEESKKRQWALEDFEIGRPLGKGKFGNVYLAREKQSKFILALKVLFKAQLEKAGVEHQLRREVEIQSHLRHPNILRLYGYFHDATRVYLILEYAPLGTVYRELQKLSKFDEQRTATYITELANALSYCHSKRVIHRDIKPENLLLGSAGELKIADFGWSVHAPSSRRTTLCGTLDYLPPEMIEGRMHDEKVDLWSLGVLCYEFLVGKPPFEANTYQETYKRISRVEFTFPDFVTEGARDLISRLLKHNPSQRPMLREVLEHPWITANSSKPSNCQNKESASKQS
Put plainly: Inhibition of Aurora A.

Assay [3] in a line: Inhibition of PKA.
Assay [4] addresses Dual specificity tyrosine-phosphorylation-regulated kinase 1A (Homo sapiens, UniProt Q13627). Put plainly: Inhibition of DYRK1a.

This note sets out measurements from ChEMBL document CHEMBL1759841, “8-Hydroxynaphthalene-1,4-dione derivative as novel compound for glioma treatment” (Bioorg Med Chem Lett, 2011).

SMILES strings stand for the structures.

Regarding `O=C1C=C(c2ccc(O)c(O)c2O)C(=O)c2c1cccc2[N+](=O)[O-]`, the IC50 – broadly, the concentration at which inhibition is half-maximal – in assay [1] is 23 µM; in assay [2], > 40 µM; on Aurora kinase A, 4.8 µM; in assay [3] it was 14 µM.

As for `Cc1ccc(S(=O)(=O)Oc2ccc3ccc(O)cc3c2)cc1`, the 50% inhibitory concentration (IC50) in assay [1] and in assay [2] was > 40 µM each time.

For `CN(C)c1ccc(C=C2C(=O)NC(=O)NC2=O)cc1`, the IC50 in assay [1] and in assay [2] was > 40 µM in each case.

Turning to `C[N+]1(Cc2cc(O)c3c(c2)C(=O)c2cccc(O)c2C3=O)CCOCC1`, the figures for the IC50 in assay [1] and in assay [2] were > 40 µM and 10 µM, respectively.

Take `CCN(CC)CCC(=O)Nc1ccc(O)c2c1C(=O)c1cccc(O)c1C2=O`: the IC50 in assay [1] and in assay [2] was > 40 µM in each case.

For the compound `C[N+](C)(C)CC(=O)OCc1cc(O)c2c(c1)C(=O)c1cccc(O)c1C2=O`, the IC50 in assay [1] and in assay [2] was > 40 µM throughout.

Consider `O=c1ccc2cc(S(=O)(=O)N3CCNCC3)cc(Cl)c2o1`, for which the IC50 in assay [1] and in assay [2] was > 40 µM each time.

With `CC1c2cc(Br)c(O)c(Br)c2OC(=O)C1Br` (stereo unspecified), the IC50 in assay [1] was 2 µM; in assay [2], > 40 µM.

For `O=C1NC(=O)C(=Cc2ccc(O)cc2O)C(=O)N1`, the concentration for half-maximal inhibition (IC50) in assay [1] and in assay [2] was > 40 µM in each case.

For `O=C1C=C(c2ccc(O)c(O)c2O)C(=O)c2c(O)ccc(O)c21`, the 50% inhibitory concentration (IC50) was 3.5 µM in assay [1], > 40 µM in assay [2], 6.2 µM on Aurora kinase A and 21.4 µM in assay [4].

Consider `Cc1coc2cc3oc(=O)c(NC(=O)CN)cc3cc12`, for which the IC50 in assay [1] and in assay [2] was > 40 µM each time.
